“And” between values parts separate entries of the source, which are not always exact repeats. Equal entries are not always repeated.
Tests used:
Format in all cases: cell-based
GPR139 [1] = target: T1, GPR139 (Homo sapiens, UniProt Q6DWJ6); experiment: Ca2+ mobilization assay, agonist mode, stable GPR139-CHOk1 cell line; settings: for EC50 / Emax: Supplementary Table 2, mean ± SEM; for EC50: read-out: pEC50 Ca2+ (converted); for Emax: normalized to Lundbeck Cmp 1a, read-out: Emax (%) Ca2+
T1 sequence (Q6DWJ6 1-353): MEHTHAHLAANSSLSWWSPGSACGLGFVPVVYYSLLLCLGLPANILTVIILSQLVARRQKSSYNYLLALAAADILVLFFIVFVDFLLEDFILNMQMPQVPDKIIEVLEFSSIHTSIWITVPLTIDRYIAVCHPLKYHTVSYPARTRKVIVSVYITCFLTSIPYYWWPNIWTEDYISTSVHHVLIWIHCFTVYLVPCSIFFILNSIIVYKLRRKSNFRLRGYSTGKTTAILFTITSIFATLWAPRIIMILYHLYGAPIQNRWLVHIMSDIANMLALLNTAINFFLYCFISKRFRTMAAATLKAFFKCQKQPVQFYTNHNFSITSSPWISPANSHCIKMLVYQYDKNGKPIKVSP
Procedure, shortened: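 Agonist activity of compounds is assessed in stably transfected CHO-K1 cells using the calcium dye Fluo-4 at 37 °C in HEPES-buffered HBSS (pH 7.4). Efficacy is expressed relative to the reference agonist Lundbeck Cmp 1a, set as 100%.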

[2] = target: T2, human muscarinic acetylcholine M1 receptor (M1R) (Homo sapiens, UniProt P11229); experiment: Ca2+ mobilization counter-screen in M1R-CHOk1 cells; settings: individual replicates (Supplementary Figure 5)
T2 sequence (P11229 1-460): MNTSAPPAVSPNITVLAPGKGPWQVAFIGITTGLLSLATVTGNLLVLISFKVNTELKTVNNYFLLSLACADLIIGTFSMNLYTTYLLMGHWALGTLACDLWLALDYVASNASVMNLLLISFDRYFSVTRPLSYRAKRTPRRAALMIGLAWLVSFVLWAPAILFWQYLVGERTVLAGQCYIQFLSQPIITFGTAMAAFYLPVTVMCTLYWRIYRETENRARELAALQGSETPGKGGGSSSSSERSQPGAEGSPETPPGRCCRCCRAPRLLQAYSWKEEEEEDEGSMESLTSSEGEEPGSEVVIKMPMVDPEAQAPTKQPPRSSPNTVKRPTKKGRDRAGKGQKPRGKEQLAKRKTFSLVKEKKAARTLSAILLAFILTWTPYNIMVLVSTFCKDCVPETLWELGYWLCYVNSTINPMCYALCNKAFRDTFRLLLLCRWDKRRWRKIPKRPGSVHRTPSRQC
Procedure, shortened: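 Cells expressing M1R were grown 20–24 h, washed, then incubated 1 h at 37 °C with 2 µM Fluo-4 AM. After a wash and 10 min in probenecid buffer, test compounds were injected following a baseline read, and intracellular Ca2+ rise was monitored at 37 °C.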

GPR139 [3] = target: T1, GPR139; experiment: Ca2+ mobilization assay, antagonist mode (EC80 800 nM Lundbeck Cmp 1a after 20 min preincubation), GPR139-CHOk1; settings: individual replicates (Supplementary Figure 4)
Procedure, shortened: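 Antagonist mode: 800 nM (EC80) reference agonist Lundbeck Cmp 1a added following 20 min pre-incubation with 10 µM compound. GPR139-CHOk1 cells, Fluo-4 dye, probenecid-containing HEPES buffer pH 7.4; intracellular Ca2+ measured at 37 °C (ex 485, em 525 nm).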

[4] = Agonist mode, individual replicates (Supplementary Figure 4)
[5] = log [Compound] M = -4.5, individual replicate columns
[6] = log [Compound] M = -5.0, individual replicate columns
[7] = log [Compound] M = -5.5, individual replicate columns
[8] = log [Compound] M = -6.0, individual replicate columns
[9] = log [Compound] M = -6.5, individual replicate columns
[10] = log [Compound] M = -7.0, individual replicate columns
[11] = log [Compound] M = -7.5, individual replicate columns
[12] = log [Compound] M = -8.0, individual replicate columns
[13] = log [Compound] M = -8.5, individual replicate columns
[14] = log [Compound] M = -9.0, individual replicate columns

| EC50 (GPR139 [1]) | Emax (GPR139 [1]) | SMILES | Ca2+ signal (% of Cmp 1a) (GPR139 [1]; [4]) | change in potency with larger substituents on the thiophene ring (GPR139 [1]; Ca2+ mobilization) | Ca2+ signal (% of Cmp 1a) (GPR139 [1]; [5]) | Ca2+ signal (% of Cmp 1a) (GPR139 [1]; [6]) | Ca2+ signal (% of Cmp 1a) (GPR139 [1]; [7]) | Ca2+ signal (% of Cmp 1a) (GPR139 [1]; [8]) | Ca2+ signal (% of Cmp 1a) (GPR139 [1]; [9]) | Ca2+ signal (% of Cmp 1a) (GPR139 [1]; [10]) | Ca2+ signal (% of Cmp 1a) (GPR139 [1]; [11]) | Ca2+ signal (% of Cmp 1a) (GPR139 [1]; [12]) | Ca2+ signal (% of Cmp 1a) (GPR139 [1]; [13]) | Ca2+ signal (% of Cmp 1a) (GPR139 [1]; [14]) | Ca2+ signal (% of Carbachol) [2] | Ca2+ signal (% of Cmp 1a) (GPR139 [3]) |
| --- | --- | --- | --- | --- | --- | --- | --- | --- | --- | --- | --- | --- | --- | --- | --- | --- |
| 2.51 µM | 66 ± 3% | CC(=O)c1ccc(-c2nc(CC(=O)NC(C)c3ccccc3)no2)s1 (stereo not shown) [Compound 1.28, CC(C1=CC=CC=C1)NC(CC2=NOC(C3=CC=C(C(C)=O)S3)=N2)=O] | 64 % of Cmp 1a and 62 % of Cmp 1a and 50 % of Cmp 1a | three-fold reduction to a complete loss of activity | 66 % of Cmp 1a and 68 % of Cmp 1a and 55 % of Cmp 1a and 56 % of Cmp 1a and 59 % of Cmp 1a | 77 % of Cmp 1a and 66 % of Cmp 1a and 55 % of Cmp 1a and 46 % of Cmp 1a and 59 % of Cmp 1a | 54 % of Cmp 1a and 43 % of Cmp 1a and 37 % of Cmp 1a and 21 % of Cmp 1a and 29 % of Cmp 1a | 23 % of Cmp 1a and 21 % of Cmp 1a and 9 % of Cmp 1a and 3.16 % of Cmp 1a and 14 % of Cmp 1a | 6.51 % of Cmp 1a and 1.59 % of Cmp 1a and -12 % of Cmp 1a and -2.27 % of Cmp 1a and -4.37 % of Cmp 1a | -1.28 % of Cmp 1a and 2.34 % of Cmp 1a and -6.44 % of Cmp 1a and 7 % of Cmp 1a and -2 % of Cmp 1a | 0.626 % of Cmp 1a and 6.36 % of Cmp 1a and -9 % of Cmp 1a and -0.267 % of Cmp 1a and 3 % of Cmp 1a | -4.49 % of Cmp 1a and 4.31 % of Cmp 1a and -8 % of Cmp 1a and 1.18 % of Cmp 1a and -3.25 % of Cmp 1a | -6.33 % of Cmp 1a and -0.329 % of Cmp 1a and -3.24 % of Cmp 1a and -1.55 % of Cmp 1a and -1.43 % of Cmp 1a | -6.38 % of Cmp 1a and -2.27 % of Cmp 1a and -10 % of Cmp 1a and -4 % of Cmp 1a and 1.43 % of Cmp 1a | -12 % of Carbachol and -1.79 % of Carbachol and -4.4 % of Carbachol | 19 % of Cmp 1a and 58 % of Cmp 1a and 22 % of Cmp 1a |
| 2.51 µM | 90 ± 8% | Cc1nc(-c2nc(CC(=O)NC(C)c3ccccc3)no2)co1 (stereo not shown) [Compound 1.29, CC(C1=CC=CC=C1)NC(CC2=NOC(C3=COC(C)=N3)=N2)=O] | 64 % of Cmp 1a and 49 % of Cmp 1a and 69 % of Cmp 1a |  | 126 % of Cmp 1a and 100 % of Cmp 1a and 74 % of Cmp 1a | 67 % of Cmp 1a and 101 % of Cmp 1a and 61 % of Cmp 1a | 46 % of Cmp 1a and 95 % of Cmp 1a and 41 % of Cmp 1a | 17 % of Cmp 1a and 47 % of Cmp 1a and 13 % of Cmp 1a | 0.562 % of Cmp 1a and 21 % of Cmp 1a and 3 % of Cmp 1a | -7 % of Cmp 1a and 12 % of Cmp 1a and 3 % of Cmp 1a | -2.32 % of Cmp 1a and 6.5 % of Cmp 1a and 3.51 % of Cmp 1a | 0.891 % of Cmp 1a and 5.39 % of Cmp 1a and 3 % of Cmp 1a | -0.262 % of Cmp 1a and 8 % of Cmp 1a and -2.12 % of Cmp 1a | -0.615 % of Cmp 1a and 11 % of Cmp 1a and -1.07 % of Cmp 1a | -4.71 % of Carbachol and 3.73 % of Carbachol and 1.63 % of Carbachol | 41 % of Cmp 1a and 13 % of Cmp 1a and 3 % of Cmp 1a |

— paper PMC12775434, “Ultra-large virtual screening unveils potent agonists of the neuromodulatory orphan receptor GPR139” (Nature Communications, 2025)
